Read-outs that look alike come from different tables or passages of the source. Some results are limits rather than exact numbers.

Consider four molecules from patent US20250074873A1, “COMPOUNDS” (Psylo Pty Ltd, priority 2021, published 2025).

Assay type in all cases: cell-based
Test [1] concerns the target T1, 5-HT2B receptor (Homo sapiens, UniProt P41595).
T1 construct: host or cells: CHO-K1
The test can be described thus: FLIPR Ca2+ flux functional assay, 5-HT2B agonist activity. The method, then:
(§1) Functional Assays 5-HT2A, 5-HT2B and 5-HT2C Receptors
(§2) Activity at 5-HT2A, 5-HT2B and 5-HT2C receptors was determined using a FLIPR Ca2+ flux assay at WuXi AppTec Co. Ltd. (Hong Kong) Discovery Biology Unit according to their standard protocols. Briefly, stably transfected cells expressing the receptor of interest (HEK293 for 5-HT2A and 5-HT2C; CHO-K1 for 5-HT2B) were grown and plated in a 384 well plate and incubated at 37° C. and 5% 002 overnight. A 250 mM stock solution of probenecid in FLIPR calcium assay buffer (10 mL) was freshly prepared and combined with a fluorescent dye (Fluo-4 Direct) to give a final assay concentration of 2.5 mM. Reference compounds were 4-fold serially diluted and the screening compounds were 3-fold serially diluted in 100% DMSO for 10 points using Agilent Bravo, and 750 nL was added to a 384 well compound plate using Echo along with 30 μL assay buffer. The fluorescent dye was then added to the assay plate along with assay buffer to a final volume of 40 μL. The cell plate was incubated for […] at 37° C. and 5% 002 and placed into the FLIPR Tetra along with the compound plate. 10 μL of references and compounds were then transferred from the compound plate into the cell plate and the fluorescent signal was read.
(A change in cytosolic calcium serves as a functional read-out for many receptors and channels.)

Test [2] has as its target T2, 5-HT2A receptor (Homo sapiens, UniProt P28223).
T2 construct: host or cells: HEK293
Description: FLIPR Ca2+ flux functional assay, 5-HT2A agonist activity. The method, then:
as §1, §2

The target of test [3] is T3, 5-HT2C receptor (Homo sapiens, UniProt P28335).
T3 construct: host or cells: HEK293
T3 sequence (P28335 33-458): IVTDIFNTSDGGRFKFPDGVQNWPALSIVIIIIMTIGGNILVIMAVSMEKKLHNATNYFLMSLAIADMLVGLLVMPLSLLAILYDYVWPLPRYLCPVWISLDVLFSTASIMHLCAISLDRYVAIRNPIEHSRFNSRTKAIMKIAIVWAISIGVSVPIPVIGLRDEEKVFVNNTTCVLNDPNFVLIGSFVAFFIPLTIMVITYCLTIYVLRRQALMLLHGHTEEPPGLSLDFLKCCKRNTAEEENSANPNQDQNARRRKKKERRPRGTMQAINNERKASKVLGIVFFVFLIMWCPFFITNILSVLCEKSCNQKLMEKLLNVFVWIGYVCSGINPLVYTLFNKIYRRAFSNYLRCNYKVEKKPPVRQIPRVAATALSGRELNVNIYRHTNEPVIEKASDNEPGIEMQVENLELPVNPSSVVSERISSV
The test can be described thus: FLIPR Ca2+ flux functional assay, 5-HT2C agonist activity. Here is the method:
as §1, §2

[4] abbreviates: agonist activity, Ca2+ flux, stably transfected CHO-K1 cells.
[5] abbreviates: agonist activity, Ca2+ flux, stably transfected HEK293 cells.

T2 sequence (P28223 whole entry): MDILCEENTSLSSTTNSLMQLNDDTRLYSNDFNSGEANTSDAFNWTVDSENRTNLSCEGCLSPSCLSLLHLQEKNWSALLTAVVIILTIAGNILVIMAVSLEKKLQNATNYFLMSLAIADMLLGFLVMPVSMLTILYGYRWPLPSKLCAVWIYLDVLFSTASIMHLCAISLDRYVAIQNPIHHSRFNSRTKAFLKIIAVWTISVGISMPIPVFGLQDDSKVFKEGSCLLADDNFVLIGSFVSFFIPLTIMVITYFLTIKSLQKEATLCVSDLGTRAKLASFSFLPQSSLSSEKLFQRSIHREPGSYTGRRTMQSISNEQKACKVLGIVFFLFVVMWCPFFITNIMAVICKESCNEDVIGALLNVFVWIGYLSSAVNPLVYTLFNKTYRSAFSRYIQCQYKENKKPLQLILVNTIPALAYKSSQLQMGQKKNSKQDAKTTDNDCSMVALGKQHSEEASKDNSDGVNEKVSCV
T1 sequence (P41595 whole entry): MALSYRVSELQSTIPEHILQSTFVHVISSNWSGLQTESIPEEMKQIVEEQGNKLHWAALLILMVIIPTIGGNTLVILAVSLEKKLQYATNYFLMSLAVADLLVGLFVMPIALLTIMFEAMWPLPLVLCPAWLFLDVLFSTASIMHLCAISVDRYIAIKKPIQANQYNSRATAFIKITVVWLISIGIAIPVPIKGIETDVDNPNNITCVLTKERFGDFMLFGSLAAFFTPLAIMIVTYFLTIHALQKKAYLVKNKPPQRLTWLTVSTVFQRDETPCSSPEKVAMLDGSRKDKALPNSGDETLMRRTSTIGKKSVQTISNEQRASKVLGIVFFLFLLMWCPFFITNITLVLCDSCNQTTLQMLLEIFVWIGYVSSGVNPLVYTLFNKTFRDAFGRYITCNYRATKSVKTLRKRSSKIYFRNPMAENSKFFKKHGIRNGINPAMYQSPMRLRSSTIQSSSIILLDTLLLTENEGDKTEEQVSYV

Broadly, the EC50 is the concentration at which the effect is half-maximal. The term Emax denotes the maximal effect, on the per cent scale that the assay sets. Turning to `CCCN(CCc1c[nH]c2cccc(O)c12)C(C)C` [Compound P-141, 3-(2-(isopropyl(propyl)amino)ethyl)-1H-indol-4-ol], the EC50 in test [1] is 330 nM; in test [2] it was 13.8 nM; in test [3] it was 422 nM. The Emax in test [1] (setting [4]) is 62.2%; in test [2] (setting [5]) it was 105%; in test [3] (setting [5]) it was 92%.

On to `COc1ccc2[nH]cc(CCN(C)C3CC3)c2c1` [Compound P-162, N-(2-(5-methoxy-1H-indol-3-yl)ethyl)-N-methylcyclopropanamine], for which the concentration for a half-maximal effect (EC50) was not below 10000 nM in test [1], 4.83 nM in test [2] and 10.6 nM in test [3]. Further, the Emax in test [1] (setting [4]) was determined as 12%; in test [2] (setting [5]), 95.6%; in test [3] (setting [5]), 89.2%.

As for `COc1ccc2[nH]cc(CCN(C)C3CCC3)c2c1` [Compound P-163, N-(2-(5-methoxy-1H-indol-3-yl)ethyl)-N-methylcyclobutanamine], the EC50 is not below 10000 nM in test [1], 25.4 nM in test [2] and 128 nM in test [3]. The Emax came to 2.29% in test [1] (setting [4]), 90.5% in test [2] (setting [5]) and 75.9% in test [3] (setting [5]).

As to `COc1ccc2[nH]cc(CCN(C)C3COC3)c2c1` [Compound P-164, N-(2-(5-methoxy-1H-indol-3-yl)ethyl)-N-methyloxetan-3-amine], the Emax in test [1] (setting [4]) stood at 1.26%; in test [2] (setting [5]), 57.5%; in test [3] (setting [5]), 59.9%. Besides, the EC50 was not below 10000 nM in test [1] (agonist activity, Ca2+ flux, stably transfected CHO-K1 cells, read-out: 5-HT2B EC50); 671 nM in test [2] (agonist activity, Ca2+ flux, stably transfected HEK293 cells, read-out: 5-HT2A EC50); 6280 nM in test [3] (agonist activity, Ca2+ flux, stably transfected HEK293 cells, read-out: 5-HT2c EC50).
